Assays:
Experiment in all cases: SPR solution competition
Format in all cases: binding
PKA hRIα CNB-A (115–274) [1] = target: PKA hRIα CNB-A (115–274) (Homo sapiens, UniProt P10644, T192R)
PKA hRIα CNB-B (234–381) [2] = target: PKA hRIα CNB-B (234–381) (Homo sapiens, UniProt P10644, G316R/V315L)
PKA hRIα CNB-B (234–381) [3] = target: PKA hRIα CNB-B (234–381) (Homo sapiens, UniProt P10644, A336T)
PKA hRIα CNB-B (234–381) [4] = target: PKA hRIα CNB-B (234–381) (Homo sapiens, UniProt P10644, V315L)
PKA hRIα CNB-B (234–381) [5] = target: PKA hRIα CNB-B (234–381) (Homo sapiens, UniProt P10644, A336T/G316R)
PKA hRIα CNB-A (115–274) [6] = target: PKA hRIα CNB-A (115–274) (Homo sapiens, UniProt P10644, A212T)
PKA hRIα CNB-A (115–274) [7] = target: PKA hRIα CNB-A (115–274) (Homo sapiens, UniProt P10644, A212T/T192R)
PKA hRIα CNB-B (234–381) [8] = target: PKA hRIα CNB-B (234–381) (Homo sapiens, UniProt P10644, G316R)
PKA hRIα CNB-B (234–381) [9] = target: PKA hRIα CNB-B (234–381) (Homo sapiens, UniProt P10644, A336T/G316R/V315L)
PKA hRIα CNB-B (234–381) [10] = target: PKA hRIα CNB-B (234–381) (Homo sapiens, UniProt P10644)
PKA hRIα CNB-A (115–274) [11] = target: PKA hRIα CNB-A (115–274) (Homo sapiens, UniProt P10644)

EC50 (PKA hRIα CNB-A (115–274) [1]) [nM] | EC50 (PKA hRIα CNB-B (234–381) [2]) [nM] | EC50 (PKA hRIα CNB-B (234–381) [3]) [nM] | EC50 (PKA hRIα CNB-B (234–381) [4]) [nM] | EC50 (PKA hRIα CNB-B (234–381) [5]) [nM] | EC50 (PKA hRIα CNB-A (115–274) [6]) [nM] | EC50 (PKA hRIα CNB-A (115–274) [7]) [nM] | EC50 (PKA hRIα CNB-B (234–381) [8]) [nM] | EC50 (PKA hRIα CNB-B (234–381) [9]) [nM] | EC50 (PKA hRIα CNB-B (234–381) [10]) [nM] | EC50 (PKA hRIα CNB-A (115–274) [11]) [nM] | SMILES
1530 ± 53 | 66 ± 2 | 2 ± 0.1 | 678 ± 100 | 0.4 ± 0.1 | 83 ± 33 | 24 ± 5 | 98 ± 41 | 0.6 ± 0.3 | – | – | Nc1nc2c(ncn2[C@@H]2O[C@@H]3COP(=O)(O)O[C@H]3[C@H]2O)c(=O)[nH]1 [cGMP]
156 ± 5 | – | – | – | – | – | – | 25 ± 9 | – | 114 ± 51 | 273 ± 16 | O=c1[nH]cnc2c1ncn2[C@@H]1O[C@@H]2COP(=O)(O)O[C@H]2[C@H]1O [cIMP]

Reference: publication PMC5896744 (The Biochemical journal, 2017)
